Source: patent publication US10206400B2, “Insecticidal compounds based on isoxazoline derivatives” (Syngenta Crop Protection LLC, priority 2009, dated 2019)

Experiments:
Format in all cases: in vivo
[1] = system: Thrips tabaci; experiment: Thrips tabaci (onion thrips) leaf disc spray test; conditions: foliar, 168 h, 200 ppm spray on sunflower leaf discs, mixed ages, 7 days, mortality
Protocol: [The procedure below names another target; the source lists this target under the same test.] Sunflower leaf discs were placed on agar in a 24-well microtiter plate and sprayed with test solutions at an application rate of 200 ppm. After drying, the leaf discs were infested with an […] population of mixed ages. After an incubation period of 7 days, samples were checked for mortality.

[2] = system: Myzus persicae; experiment: Myzus persicae (green peach aphid), systemic test; conditions: 144 h, roots of infested pea seedlings in test solution, 6 days, mortality, special effects on the plant
Description: Myzus persicae (Green peach aphid), systemic test: Roots of pea seedlings, infested with an aphid population of mixed ages, are placed directly in the test solutions at an application rate of 12.5 ppm. 6 days after introduction, samples are checked for mortality and special effects on the plant. The following compounds gave at least 80% control of Myzus persicae: A3, B2, B3, B5, B6, B7, B8, B11, B12, C1, C2, C3,C4, C5, C6, C7, D1, E1, E2, G1, G3, G5, G6, H1, H5, H6, H9, H10, H11, H12, H13, H14, H18, H19, H20, H24, H25, and H26.

[3] = system: Diabrotica balteata; experiment: Diabrotica balteata (corn root worm) artificial diet test; conditions: 120 h, 200 ppm (concentration in well 18 ppm), L2 larvae, 5 days, larval mortality, growth regulation
Protocol: (§1) A 24-well microtiter plate (MTP) with artificial diet was treated with test solutions at an application rate of 200 ppm (concentration in well 18 ppm) by pipetting. After drying, the MTP's were infested with L2 larvae (6-10 per well). After an incubation period of 5 days, samples were checked for larval mortality and growth regulation.

[4] = system: Tetranychus urticae; experiment: Tetranychus urticae (two-spotted spider mite) leaf disc spray test; conditions: foliar, 192 h, 200 ppm spray on bean leaf discs, mixed ages, 8 days, egg, larval and adult mortality
Description: Bean leaf discs on agar in 24-well microtiter plates were sprayed with test solutions at an application rate of 200 ppm. After drying, the leaf discs are infested with mite populations of mixed ages. 8 days later, discs are checked for egg mortality, larval mortality, and adult mortality.

[5] = system: Heliothis virescens; experiment: Heliothis virescens (tobacco budworm) egg/artificial diet test; conditions: 96 h, 200 ppm (concentration in well 18 ppm), eggs 0-24 h old on artificial diet, 4 days, egg mortality, larval mortality, growth regulation
Protocol: Eggs (0-24 h old) were placed in 24-well microtiter plate on artificial diet and treated with test solutions at an application rate of 200 ppm (concentration in well 18 ppm) by pipetting. After an incubation period of 4 days, samples were checked for egg mortality, larval mortality, and growth regulation.

[6] = system: Spodoptera littoralis; experiment: Spodoptera littoralis (Egyptian cotton leafworm) leaf disc spray test; conditions: foliar, 72 h, 200 ppm spray on cotton leaf discs, L1 larvae, mortality, feeding behavior, growth regulation 3 days after treatment
Description: Cotton leaf discs were placed on agar in a 24-well microtiter plate and sprayed with test solutions at an application rate of 200 ppm. After drying, the leaf discs were infested with 5 L1 larvae. The samples were checked for mortality, feeding behavior, and growth regulation 3 days after treatment (DAT).

[7] = system: Plutella xylostella; experiment: Plutella xylostella (diamond back moth) artificial diet test; conditions: 144 h, 200 ppm (concentration in well 18 ppm), L2 larvae, 6 days, larval mortality, growth regulation
Protocol: as §1, with “24-well” for “A 24-well”, “(7-12” for “(6-10”, “6” for “5”

CCN1OC[C@@H](NC(=O)c2ccc(C3=NOC(c4cc(F)cc(Cl)c4)(C(F)(F)F)C3)cc2C)C1=O (stereo partly drawn) [Compound C5, 4-[5-(3-chloro-5-fluoro-phenyl)-5-trifluoromethyl-4,5-dihydro-isoxazol-3-yl]-2-methyl-N-((R)-2-ethyl-3-oxo-isoxazolidin-4-yl)-benzamide]
≥ 80%: pest or weed control at 200 ppm [1] | pest or weed control at 12.5 ppm [2] | pest or weed control at 200 ppm [3] | pest or weed control at 200 ppm [4] | pest or weed control at 200 ppm [5] | pest or weed control at 200 ppm [6] | pest or weed control at 200 ppm [7]

Cc1cc(C2=NOC(c3cc(Cl)cc(Cl)c3)(C(F)(F)F)C2)ncc1C(=O)N[C@@H]1CON(CC(F)(F)F)C1=O (stereo partly drawn) [Compound C6, 6-[5-(3,5-Dichloro-phenyl)-5-trifluoromethyl-4,5-dihydro-isoxazol-3-yl]-4-methyl-N— [(R)-3-oxo-2-(2,2,2-trifluoro-ethyl)-isoxazolidin-4-yl]-nicotinamide]
≥ 80%: pest or weed control at 200 ppm [1] | pest or weed control at 12.5 ppm [2] | pest or weed control at 200 ppm [3] | pest or weed control at 200 ppm [4] | pest or weed control at 200 ppm [5] | pest or weed control at 200 ppm [6] | pest or weed control at 200 ppm [7]

COCCN1OC[C@@H](NC(=O)c2ccc(C3=NOC(c4cc(Cl)cc(Cl)c4)(C(F)(F)F)C3)cc2C)C1=O (stereo partly drawn) [Compound B7, 4-[5-(3,5-Dichloro-phenyl)-5-trifluoromethyl-4,5-dihydro-isoxazol-3-yl]-2-methyl-N-((R)-2-(2-methoxyethyl)-3-oxo-isoxazolidin-4-yl)-benzamide]
≥ 80%: pest or weed control at 200 ppm [1] | pest or weed control at 12.5 ppm [2] | pest or weed control at 200 ppm [3] | pest or weed control at 200 ppm [4] | pest or weed control at 200 ppm [5] | pest or weed control at 200 ppm [6] | pest or weed control at 200 ppm [7]

CCN1CC(CNC(=O)c2ccc(C3=NOC(c4cc(Cl)cc(Cl)c4)(C(F)(F)F)C3)cc2C)CS1(=O)=O (stereo not shown) [Compound D1, 4-[5-(3,5-Dichloro-phenyl)-5-trifluoromethyl-4,5-dihydro-isoxazol-3-yl]-N-(2-ethyl-1,1-dioxo-1lambda*6*-isothiazolidin-4-ylmethyl)-2-methl-benzamide]
≥ 80%: pest or weed control at 200 ppm [1] | pest or weed control at 12.5 ppm [2] | pest or weed control at 200 ppm [3] | pest or weed control at 200 ppm [4] | pest or weed control at 200 ppm [5] | pest or weed control at 200 ppm [6] | pest or weed control at 200 ppm [7]

CCN1OC[C@@H](NC(=O)c2ccc(C3=NO[C@@](c4cc(Cl)cc(Cl)c4)(C(F)(F)F)C3)cc2C)C1=O [Compound G1, 4-[5-(3,5-dichloro-phenyl)-5-(S)-trifluoromethyl-4,5-dihydro-isoxazol-3-yl]-2-methyl-N—((R)-2-ethyl-3-oxo-isoxazolidin-4-yl)-benzamide]
≥ 80%: pest or weed control at 200 ppm [1] | pest or weed control at 12.5 ppm [2] | pest or weed control at 200 ppm [3] | pest or weed control at 200 ppm [4] | pest or weed control at 200 ppm [5] | pest or weed control at 200 ppm [6] | pest or weed control at 200 ppm [7]

Cc1cc(C2=NOC(c3cc(Cl)cc(Cl)c3)(C(F)(F)F)C2)ccc1C(=O)N[C@@H]1CON(C)C1=O (stereo partly drawn) [Compound B2, 4-[5-(3,5-Dichloro-phenyl)-5-trifluoromethyl-4,5-dihydro-isoxazol-3-yl]-2-methyl-N-((R)-2-methyl-3-oxo-isoxazolidin-4-yl)-benzamide]
≥ 80%: pest or weed control at 200 ppm [1] | pest or weed control at 12.5 ppm [2] | pest or weed control at 200 ppm [3] | pest or weed control at 200 ppm [4] | pest or weed control at 200 ppm [5] | pest or weed control at 200 ppm [6] | pest or weed control at 200 ppm [7]

CCN1CC(NC(=O)c2ccc(C3=NOC(c4cc(Cl)cc(Cl)c4)(C(F)(F)F)C3)cc2C)CO1 (stereo not shown) [Compound A3, 4-[5-(3,5-Dichloro-phenyl)-5-trifluoromethyl-4,5-dihydroisoxazol-3-yl]-N-(2-ethyl-isoxazolidin-4-yl)-2-methyl-benzamide]
≥ 80%: pest or weed control at 200 ppm [1] | pest or weed control at 12.5 ppm [2] | pest or weed control at 200 ppm [3] | pest or weed control at 200 ppm [4] | pest or weed control at 200 ppm [5] | pest or weed control at 200 ppm [6] | pest or weed control at 200 ppm [7]

Cc1cc(C2=NOC(c3cc(Cl)cc(Cl)c3)(C(F)(F)F)C2)ccc1C(=O)N[C@@H]1CON(C2COC2)C1=O (stereo partly drawn) [Compound B12, 4-[5-(3,5-Dichloro-phenyl)-5-trifluoromethyl-4,5-dihydro-isoxazol-3-yl]-2-methyl-N-((R)-2-(oxetan-3-yl)-3-oxo-isoxazolidin-4-yl)-benzamide]
≥ 80%: pest or weed control at 200 ppm [1] | pest or weed control at 12.5 ppm [2] | pest or weed control at 200 ppm [3] | pest or weed control at 200 ppm [4] | pest or weed control at 200 ppm [5] | pest or weed control at 200 ppm [6] | pest or weed control at 200 ppm [7]

CCN1OC[C@@H](NC(=O)c2ccc(C3=NOC(c4cc(Cl)c(Br)c(Cl)c4)(C(F)(F)F)C3)cc2C)C1=O (stereo partly drawn) [Compound C2, 4-[5-(3,5-Dichloro-4-bromo-phenyl)-5-trifluoromethyl-4,5-dihydro-isoxazol-3-yl]-2-methyl-N-((R)-2-ethyl-3-oxo-isoxazolidin-4-yl)-benzamide]
≥ 80%: pest or weed control at 200 ppm [1] | pest or weed control at 12.5 ppm [2] | pest or weed control at 200 ppm [3] | pest or weed control at 200 ppm [4] | pest or weed control at 200 ppm [5] | pest or weed control at 200 ppm [6] | pest or weed control at 200 ppm [7]

Cc1cc(C2=NOC(c3cc(Cl)cc(Cl)c3)(C(F)(F)F)C2)ccc1C(=O)N[C@H]1CON(C)C1=O (stereo partly drawn) [Compound E1, 4-[5-(3,5-Dichloro-phenyl)-5-trifluoromethyl-4,5-dihydro-isoxazol-3-yl]-2-methyl-N-((S)-2-methyl-3-oxo-isoxazolidin-4-yl)-benzamide]
≥ 80%: pest or weed control at 200 ppm [1] | pest or weed control at 12.5 ppm [2] | pest or weed control at 200 ppm [3] | pest or weed control at 200 ppm [4] | pest or weed control at 200 ppm [5] | pest or weed control at 200 ppm [6] | pest or weed control at 200 ppm [7]

CCCCN1OC[C@@H](NC(=O)c2ccc(C3=NOC(c4cc(Cl)cc(Cl)c4)(C(F)(F)F)C3)cc2C)C1=O (stereo partly drawn) [Compound B8, 4-[5-(3,5-Dichloro-phenyl)-5-trifluoromethyl-4,5-dihydro-isoxazol-3-yl]-2-methyl-N-((R)-2-butyl-3-oxo-isoxazolidin-4-yl)-benzamide]
≥ 80%: pest or weed control at 200 ppm [1] | pest or weed control at 12.5 ppm [2] | pest or weed control at 200 ppm [3] | pest or weed control at 200 ppm [4] | pest or weed control at 200 ppm [5] | pest or weed control at 200 ppm [6] | pest or weed control at 200 ppm [7]

Cc1cc(C2=NO[C@@](c3cc(Cl)cc(Cl)c3)(C(F)(F)F)C2)ccc1C(=O)N[C@@H]1CON(CC(F)F)C1=O [Compound G5, 4-[5-(3,5-Dichloro-phenyl)-5-(S)-trifluoromethyl-4,5-dihydro-isoxazol-3-yl]-2-methyl-N—((R)-2-(2,2-difluoroethyl)-3-oxo-isoxazolidin-4-yl)-benzamide]
≥ 80%: pest or weed control at 200 ppm [1] | pest or weed control at 12.5 ppm [2] | pest or weed control at 200 ppm [3] | pest or weed control at 200 ppm [4] | pest or weed control at 200 ppm [5] | pest or weed control at 200 ppm [6] | pest or weed control at 200 ppm [7]

CCN1OC[C@@H](NC(=O)c2ccc(C3=NOC(c4cc(Cl)cc(Cl)c4)(C(F)(F)F)C3)cc2C)C1=O (stereo partly drawn) [Compound B6, 4-[5-(3,5-Dichloro-phenyl)-5-trifluoromethyl-4,5-dihydro-isoxazol-3-yl]-2-methyl-N-((R)-2-ethyl-3-oxo-isoxazolidin-4-yl)-benzamide]
≥ 80%: pest or weed control at 200 ppm [1] | pest or weed control at 12.5 ppm [2] | pest or weed control at 200 ppm [3] | pest or weed control at 200 ppm [4] | pest or weed control at 200 ppm [5] | pest or weed control at 200 ppm [6] | pest or weed control at 200 ppm [7]
